Laboratory results as given in ChEMBL document CHEMBL1133425, “Synthesis and dopaminergic activity of heterocyclic analogues of 5,6-dihydroxy-2-aminotetralins” (2000).

What was measured:
[1] = organism: Oryctolagus cuniculus; assay: D1-like activity was evaluated as pD2 on a superfused rabbit splenic artery; type: functional
[2] = organism: Oryctolagus cuniculus; assay: D2-like activity was evaluated as pD2 on a superfused rabbit ear artery; type: functional

Structure (SMILES) | pD2 [1] | pD2 [2]
CCCN(CCC)C1CCc2c(ccc(O)c2O)C1 (centres undefined) | 6.5 | 9.8
CCCN(CCCCCCNCCc1ccc(S(C)(=O)=O)cc1)[C@H]1CCc2c(ccc(O)c2O)C1 | 8.6 | 10.1
CCCN(CCCCCCNCCc1ccc(S(C)(=O)=O)cc1)C1CCc2nc(N)sc2C1 (centres undefined) | 6.3 | 8.4
CS(=O)(=O)c1ccc(CCNCCCCCCNCCc2cccnc2)cc1 | <5 | 5.5
CCCN(CCCCCCNCCc1ccc(S(C)(=O)=O)cc1)C1CCc2ncccc2C1 (centres undefined) | <5 | 8.4
CS(=O)(=O)c1ccc(CCNCCCCCCNC2CCc3[nH]ccc3C2)cc1 (centres undefined) | <5 | <6
CCCN(CCCCCCNCCc1ccc(S(C)(=O)=O)cc1)C1CCc2[nH]ccc2C1 (centres undefined) | <5 | –
CCCN(CCCCCCN(CCC)C1CCc2nc(O)ccc2C1)CCc1ccc(S(C)(=O)=O)cc1 (centres undefined) | <5 | –
CS(=O)(=O)c1ccc(CCNCCCCCCNCCc2cc[nH]c2)cc1 | <5 | –
CCCN(CCCCCCN(CCC)CCc1cccnc1)CCc1ccc(S(C)(=O)=O)cc1 | 5.5 | <6
CS(=O)(=O)c1ccc(CCNCCCCCCNC2CCc3ncccc3C2)cc1 (centres undefined) | <5 | 6.3
